Reference: PMC10629583, “Specific inhibition of an anticancer target, polo-like kinase 1, by allosterically dismantling its mechanism of substrate recognition” (Proceedings of the National Academy of Sciences of the …, 2023)

Columns and labels:
Assay in all cases: PDSP off-target binding screen
Settings in all cases: for inhibition at 10 µM: read-out: Primary screen AVE(%inhib)±SD; for Ki: read-out: Secondary screen Ki
[1] = molecular target: T1, M5 (Homo sapiens, UniProt P08912)
T1 sequence (P08912 1-532): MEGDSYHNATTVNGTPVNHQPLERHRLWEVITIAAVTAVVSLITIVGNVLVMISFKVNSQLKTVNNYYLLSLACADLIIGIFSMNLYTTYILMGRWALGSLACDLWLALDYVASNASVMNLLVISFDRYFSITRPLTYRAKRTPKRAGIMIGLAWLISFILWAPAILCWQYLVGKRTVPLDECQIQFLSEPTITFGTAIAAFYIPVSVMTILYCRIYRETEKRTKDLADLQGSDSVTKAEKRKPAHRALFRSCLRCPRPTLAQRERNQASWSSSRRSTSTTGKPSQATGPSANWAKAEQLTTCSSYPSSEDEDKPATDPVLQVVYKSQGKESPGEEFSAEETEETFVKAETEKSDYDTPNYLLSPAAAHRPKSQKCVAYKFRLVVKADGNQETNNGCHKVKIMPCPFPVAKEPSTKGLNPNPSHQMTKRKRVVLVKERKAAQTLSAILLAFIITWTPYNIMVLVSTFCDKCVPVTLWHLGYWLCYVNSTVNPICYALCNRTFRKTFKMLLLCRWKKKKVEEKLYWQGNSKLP
Excerpt: (§1) PDSP no. Compound Interactions (Ki, µM)
(§2) 60477 Allopole-A None observed.
(§3) trigger a secondary screen at that receptor.

[2] = molecular target: T2, Alpha2B (Homo sapiens, UniProt P18089)
T2 sequence (P18089 1-450): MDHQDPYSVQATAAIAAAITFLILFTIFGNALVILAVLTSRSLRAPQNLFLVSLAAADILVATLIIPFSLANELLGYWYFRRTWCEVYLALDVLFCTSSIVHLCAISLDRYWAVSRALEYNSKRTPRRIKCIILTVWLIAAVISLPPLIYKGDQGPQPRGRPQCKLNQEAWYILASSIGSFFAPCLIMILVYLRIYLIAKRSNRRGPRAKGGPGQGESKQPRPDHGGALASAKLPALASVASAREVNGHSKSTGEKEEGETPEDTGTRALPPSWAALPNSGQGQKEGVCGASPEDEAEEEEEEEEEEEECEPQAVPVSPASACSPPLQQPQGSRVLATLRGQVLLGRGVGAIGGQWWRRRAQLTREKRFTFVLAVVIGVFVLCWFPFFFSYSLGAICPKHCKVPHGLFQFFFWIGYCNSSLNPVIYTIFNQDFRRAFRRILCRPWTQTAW
Excerpt: as §1, §2, §3

[3] = molecular target: T3, Alpha2A (Homo sapiens, UniProt P08913)
T3 sequence (P08913 1-465): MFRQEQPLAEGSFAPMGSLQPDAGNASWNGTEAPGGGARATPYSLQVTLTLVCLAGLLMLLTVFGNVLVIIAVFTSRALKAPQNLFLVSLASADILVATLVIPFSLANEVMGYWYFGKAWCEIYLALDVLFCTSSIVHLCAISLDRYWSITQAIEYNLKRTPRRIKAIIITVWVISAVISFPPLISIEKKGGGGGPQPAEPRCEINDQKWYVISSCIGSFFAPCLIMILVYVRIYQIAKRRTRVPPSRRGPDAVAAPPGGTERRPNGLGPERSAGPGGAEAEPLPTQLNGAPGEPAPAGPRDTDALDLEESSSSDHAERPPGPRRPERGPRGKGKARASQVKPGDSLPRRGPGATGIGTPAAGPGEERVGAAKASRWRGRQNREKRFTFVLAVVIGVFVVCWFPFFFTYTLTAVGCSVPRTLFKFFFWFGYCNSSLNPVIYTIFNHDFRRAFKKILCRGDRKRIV
Excerpt: as §1, §2, §3

[4] = molecular target: T4, Alpha1D (Homo sapiens, UniProt P25100)
T4 sequence (P25100 1-572): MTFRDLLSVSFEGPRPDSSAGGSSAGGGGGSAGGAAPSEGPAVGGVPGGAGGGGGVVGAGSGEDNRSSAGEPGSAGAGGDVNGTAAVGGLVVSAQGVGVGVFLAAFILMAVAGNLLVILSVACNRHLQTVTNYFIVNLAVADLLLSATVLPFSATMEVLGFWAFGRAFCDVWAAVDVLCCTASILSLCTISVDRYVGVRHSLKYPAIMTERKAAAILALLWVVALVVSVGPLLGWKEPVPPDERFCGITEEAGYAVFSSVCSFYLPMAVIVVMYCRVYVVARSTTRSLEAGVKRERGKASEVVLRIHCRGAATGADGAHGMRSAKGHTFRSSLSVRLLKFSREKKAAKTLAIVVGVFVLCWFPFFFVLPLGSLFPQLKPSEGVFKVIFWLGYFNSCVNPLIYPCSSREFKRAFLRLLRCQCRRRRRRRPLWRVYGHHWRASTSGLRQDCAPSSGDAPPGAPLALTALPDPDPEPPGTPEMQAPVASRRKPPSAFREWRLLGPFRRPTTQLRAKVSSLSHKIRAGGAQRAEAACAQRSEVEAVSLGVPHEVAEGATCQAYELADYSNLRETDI
Excerpt: as §1, §2, §3

[5] = molecular target: H2 (Homo sapiens, UniProt P25021)
Chain of H2 (P25021 whole entry): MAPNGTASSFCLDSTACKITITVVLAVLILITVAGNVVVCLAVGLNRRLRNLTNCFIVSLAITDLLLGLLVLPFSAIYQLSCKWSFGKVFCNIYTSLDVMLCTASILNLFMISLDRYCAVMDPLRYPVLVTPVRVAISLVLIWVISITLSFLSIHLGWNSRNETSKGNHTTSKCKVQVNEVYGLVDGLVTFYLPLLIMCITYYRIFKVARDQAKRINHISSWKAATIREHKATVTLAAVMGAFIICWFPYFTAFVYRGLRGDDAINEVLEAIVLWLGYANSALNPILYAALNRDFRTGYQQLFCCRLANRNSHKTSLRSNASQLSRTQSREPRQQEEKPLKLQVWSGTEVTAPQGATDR
Excerpt: as §1, §2, §3

[6] = molecular target: T5, D4 (Homo sapiens, UniProt P21917)
T5 sequence (P21917 1-419): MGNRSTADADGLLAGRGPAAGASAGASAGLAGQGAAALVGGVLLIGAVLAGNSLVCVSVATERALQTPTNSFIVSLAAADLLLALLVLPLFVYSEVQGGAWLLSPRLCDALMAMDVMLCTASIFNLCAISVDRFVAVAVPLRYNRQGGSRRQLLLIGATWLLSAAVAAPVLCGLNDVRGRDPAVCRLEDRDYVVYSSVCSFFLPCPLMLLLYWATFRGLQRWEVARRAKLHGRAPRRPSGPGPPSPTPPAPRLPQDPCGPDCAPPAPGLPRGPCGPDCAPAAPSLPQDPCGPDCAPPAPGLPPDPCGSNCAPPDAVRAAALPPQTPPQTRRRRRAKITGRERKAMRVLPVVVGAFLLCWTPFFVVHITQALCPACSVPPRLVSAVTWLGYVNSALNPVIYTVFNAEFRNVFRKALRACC
Excerpt: as §1, §2, §3

[7] = molecular target: Sigma 1 (Homo sapiens, UniProt Q99720)
Chain of Sigma 1 (Q99720 whole entry): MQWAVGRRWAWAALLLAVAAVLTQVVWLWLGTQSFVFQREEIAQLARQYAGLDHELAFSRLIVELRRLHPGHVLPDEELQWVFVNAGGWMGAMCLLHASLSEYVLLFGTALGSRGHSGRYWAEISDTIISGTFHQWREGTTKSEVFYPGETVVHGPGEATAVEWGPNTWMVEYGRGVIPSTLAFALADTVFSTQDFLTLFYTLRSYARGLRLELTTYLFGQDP
Excerpt: as §1, §2, §3

[8] = molecular target: 5-HT7A (Homo sapiens, UniProt P34969)
Chain of 5-HT7A (P34969 1-445 isoform P34969-2): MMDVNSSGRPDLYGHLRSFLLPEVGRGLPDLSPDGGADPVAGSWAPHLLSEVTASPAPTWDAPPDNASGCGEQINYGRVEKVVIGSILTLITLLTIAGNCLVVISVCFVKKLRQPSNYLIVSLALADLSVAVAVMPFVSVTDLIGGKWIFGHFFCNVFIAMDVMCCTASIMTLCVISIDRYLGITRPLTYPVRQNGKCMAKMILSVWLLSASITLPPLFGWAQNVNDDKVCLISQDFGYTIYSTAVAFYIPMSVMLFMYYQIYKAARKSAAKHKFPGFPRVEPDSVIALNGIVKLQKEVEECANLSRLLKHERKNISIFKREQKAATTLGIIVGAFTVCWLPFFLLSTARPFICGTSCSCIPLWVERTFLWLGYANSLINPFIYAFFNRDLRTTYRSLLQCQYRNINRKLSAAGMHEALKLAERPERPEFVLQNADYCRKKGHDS
Excerpt: as §1, §2, §3

[9] = molecular target: T6, 5-HT1D (Homo sapiens, UniProt P28221)
T6 construct: NIMH Psychoactive Drug Screening Program (UNC)
T6 sequence (P28221 whole entry): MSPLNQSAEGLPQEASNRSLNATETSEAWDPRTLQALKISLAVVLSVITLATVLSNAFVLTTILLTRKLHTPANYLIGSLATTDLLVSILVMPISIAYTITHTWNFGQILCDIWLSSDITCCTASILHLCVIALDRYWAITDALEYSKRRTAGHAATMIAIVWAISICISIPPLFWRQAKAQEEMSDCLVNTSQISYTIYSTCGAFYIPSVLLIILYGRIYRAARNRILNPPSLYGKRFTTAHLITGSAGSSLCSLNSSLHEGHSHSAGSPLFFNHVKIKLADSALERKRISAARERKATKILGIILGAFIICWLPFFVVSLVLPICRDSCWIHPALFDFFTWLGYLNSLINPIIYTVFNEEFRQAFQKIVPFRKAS
Excerpt: as §1, §2, §3

Molecule `O=c1c2sc(Cl)cc2n2c(=S)[nH]nc2n1CC1CC1` [Allopole-A] has an inhibition at 10 µM [1] of 130 ± 3%, a Ki [1] greater than 10 µM and an inhibition at 10 µM [2] of -6.4 ± 7.1%. For the same molecule, the Ki [2] was greater than 10 µM, the inhibition at 10 µM [3] was -6.3 ± 7.9% and the Ki [3] was greater than 10 µM. For the same molecule, the inhibition at 10 µM [4] was -9.9 ± 23.4%, the Ki [4] was greater than 10 µM and the inhibition at 10 µM [5] was -27.4 ± 17.1%. For the same molecule, the Ki [5] was greater than 10 µM, the inhibition at 10 µM [6] was -24.3 ± 4.4% and the Ki [6] was greater than 10 µM. For the same molecule, the inhibition at 10 µM [7] was 2 ± 21.4%, the Ki [7] was greater than 10 µM and the inhibition at 10 µM [8] was -88.1 ± 20.8%. It also gave a Ki [8] greater than 10 µM, an inhibition at 10 µM [9] of 22.5 ± 25.6% and a Ki [9] greater than 10 µM.
In the case of `Cn1cnc([N+](=O)[O-])c1Sc1nnc2n(CC3CC3)c(=O)c3sc(Cl)cc3n12` [Allopole], the inhibition at 10 µM [1] is reported as 95 ± 7.4%, the Ki [1] is reported as greater than 10 µM and the inhibition at 10 µM [2] is reported as 8.3 ± 16.4%. The Ki [2] was greater than 10 µM, the inhibition at 10 µM [3] was 9.4 ± 4.6% and the Ki [3] was greater than 10 µM. For the same molecule, the inhibition at 10 µM [4] was -15.1 ± 19.8%, the Ki [4] was greater than 10 µM and the inhibition at 10 µM [5] was -16.4 ± 21.5%. For the same molecule, the Ki [5] was greater than 10 µM, the inhibition at 10 µM [6] was 12.6 ± 4.9% and the Ki [6] was greater than 10 µM. It also gave an inhibition at 10 µM [7] of 41.8 ± 11.9%, a Ki [7] greater than 10 µM and an inhibition at 10 µM [8] of 14.9 ± 9.9%. It also gave a Ki [8] greater than 10 µM, an inhibition at 10 µM [9] of 32.8 ± 27.1% and a Ki [9] greater than 10 µM.
